“Also recorded” adds a separate entry of the source.
Key:
miR-210 [1] = test: RT-qPCR of miR-210 (mature, pri-, pre-) in MDA-MB-231 cells under hypoxic conditions; assay type: cell-based
Experimental: (§1) MDA-MB-231 cells were cultured in RPMI 1640 medium supplemented with 10% FBS (Sigma), 1× Glutagro (Corning), and 1× Pen/Strep (MP Biomedicals, LLC) (growth medium). Cells cultured in normoxia were maintained at 37° C. in ambient atmosphere (˜21% O2) with 5% CO2. Cells cultured in hypoxia were maintained at 37° C., <1% O2 in a nitrogen filled hypoxic chamber (Billups-Rothenberg, Inc.), and 5% CO2.
(§2) Approximately 200-600 ng of RNA was used in subsequent reverse transcription reactions using a miScript II RT Kit (Qiagen) or a qScript cDNA Synthesis Kit (Quanta Biosciences) per the manufacturers' recommended protocols. Primers for RT-qPCR were purchased from Integrated DNA Technologies (IDT) or Eurofins (Table S1) and used without further purification. RT-qPCR samples were prepared using Power SYBR Green PCR Master Mix (Applied Biosystems) and completed by using a 7900HT Fast Real Time PCR System (Applied Biosystems). Expression levels of RNA were normalized to U6 small nuclear RNA, GAPDH mRNA, or 18S rRNA.

pre-miR-210 RNA = test: In solution fluorescent binding assay
Experimental: Dissociation constants for the binding of pre-miR-210 RNA to Hoechst 33342 and Targapremir-210 were determined using an in solution, fluorescent binding assay. RNA was folded in 1× Binding Buffer (8 mM Na2HPO4, 190 mM NaCl, 1 mM EDTA, and 40 μg/mL BSA) at 60° C. for 5 min and then allowed to cool to room temperature for 10 min. Hoechst 33342 or Targapremir-210 was added to a final concentration of 500 nM. Next, 1:2 serial dilutions were performed in 1× Binding Buffer supplemented with 500 nM of Hoechst 33342 or Targapremir-210. Solutions were incubated for 30 min and then transferred to Corning non-binding surface 96-well black plates. Fluorescence intensity was then measured on a Bio-Tek FLX-800 plate reader. Change in fluorescence intensity was fit as a function of RNA concentration with equation 1: […]
where I and I0 are the observed fluorescence intensity in the presence and absence of RNA, respectively, Δε is the difference between the fluorescence intensity in the absence and in the presence of infinite RNA concentration, [FL]0 and [RNA]0 are the concentrations of compound (Hoechst 33342 or Targapremir-210) and RNA, respectively, and Kt is the dissociation constant.

[2] = Tumor localization by fluorescent microscopy; assay type: in vivo, NOD/SCID mice; settings: single i.p. injection
Experimental: Resected tumor samples were frozen using O.C.T. Compound (Tissue-Tek) over dry ice. Frozen tissues were sectioned by cryostat and transferred to microscope slides. Fluorescent microscopic analysis was carried out using a Leica DMI3000 B upright fluorescent microscope.

[3] = tested on: RNA in which the Dicer site was ablated; settings: reference 15; cited from earlier work
[4] = tested on: miR-210 hairpin precursor (pre-miR-210), Dicer processing; test: In vitro Dicer protection assay; assay type: biochemical; settings: recombinant human Dicer, gel quantification
Experimental: The miR-210 precursor was 5′-end labeled with [γ-^32P] ATP and T4 polynucleotide kinase as previously described^4. The RNA was then folded in 1× Reaction Buffer (Genlantis) by heating at 60° C. for 5 min and slowly cooling to room temperature, where it was then supplemented with 1 mM ATP and 2.5 mM MgCl2. Targapremir-210 was added to the reaction mixture and the samples were allowed to incubate at room temperature for 15 min. Recombinant human Dicer enzyme (Genlantis) was added to a final concentration of 0.01 U/μL and the samples were incubated for an additional 30 min at 37 ° C. Reactions were stopped by adding in 2× Gel Loading Buffer (8 M urea, 50 mM EDTA, 0.05% (w/v) bromophenol blue, 0.05% (w/v) xylene cyanol). To generate sequencing markers, pre-miR-210 was digested with RNase T1 (0.125 U/μL) in T1 Buffer (25 mM sodium citrate, pH 5, 7 M urea, and 1 mM EDTA) for 20 min at room temperature. An RNA hydrolysis ladder was prepared by incubating RNA in 1× RNA Hydrolysis Buffer (50 mM NaHCO3, 1 mM EDTA, pH 9.4) at 95° C. for 5 min. Cleavage products were resolved on a denaturing 15% polyacrylamide gel, which was imaged using a Molecular Dynamics Typhoon phosphorimager and quantified with Bio-Rad's QuantityOne software.

[5] = tested on: 15 miRNAs that have an RNA isoform that binds Targapremir-210; test: Cellular Chem-CLIP, RNA isoforms; assay type: cell-based; settings: MDA-MB-231 cells; miR-497, miR-1273c, miR-3174, miR-107
Experimental: (§3) MDA-MB-231 cells were grown in growth medium as monolayers in 60 mm dishes to ˜60% confluency. […] Cells were immediately placed under hypoxic conditions for 48 h, and total RNA was extracted using a Quick-RNA MiniPrep (Zymo Research) per the manufacturer's protocol. Approximately 10 μg of total RNA was incubated with 100 μL of streptavidin-agarose beads in 1× PBS for 1 h at room temperature with gentle shaking. The solution was removed and the beads were washed 8 times with 300 μL of in 1× PBS. Bound RNA was released from the beads by heating in 1× Elution Buffer (95% formamide, 10 mM EDTA, pH 8.2) at 60° C. for 20 min. The pulled-down RNA was purified using a Quick-RNA MiniPrep Kit (Zymo Research) and then used for subsequent RT and qPCR reactions as described above.
(§4) The relative fold-change in the amount of an RNA before and after pull-down was calculated by the ΔΔCt method as shown in equation 1: […]
(§5) Relative Fold−Change:2^−(ΔC^t ^before pull-down−Δc^t ^after pull-down) (1)
(§6) where the “ΔCt before pull-down” is the difference between the Ct values for the RNA of interest and a housekeeping gene (U6 small nuclear RNA, GAPDH mRNA, or 18S rRNA) in total RNA isolated from cells and “ΔCtafter pull-down” is the difference between the Ct values the RNA of interest and the same housekeeping gene after pull-down.

[6] = tested on: hypoxia-associated miRNAs; test: Cellular Chem-CLIP and C-Chem-CLIP, hypoxia-associated miRNAs; assay type: cell-based
Experimental: as §3, §4, §5, §6

[7] = target: pre-miR-210 Dicer site, 5′ACU3′/3′UCA5′; settings: 5′ACU3′/3′UCA5′ motif; reference 15; read-out: Kd, binding affinity for the pre-miR-210 Dicer site; cited from earlier work
[8] = tested on: miRNAs with predicted compound binding sites; test: Cellular selectivity, RT-qPCR of RNA isoforms; assay type: cell-based; settings: hypoxic MDA-MB-231 cells
Experimental: as §1, §2

[9] = tested on: miR-96 and miR-210 levels; test: Effect on miR-96 and miR-210 levels under hypoxic conditions; assay type: cell-based
[10] = tested on: panel of hypoxia-associated miRNAs (n=28); test: Cellular selectivity, RT-qPCR of hypoxia-associated miRNAs; assay type: cell-based; settings: 200 nM, MDA-MB-231 cells
Experimental: as §1, §2

GPD1L mRNA = test: RT-qPCR of resected tumors, GPD1L; assay type: in vivo, NOD/SCID mice; settings: compared to untreated tumors
Experimental: as §2
(§7) NOD/SCID mice (B6.CB17-Prkdcscid/Sz, Jackson Laboratories) were housed in the Scripps Florida vivarium. All live animal experiments were approved by the Scripps Florida Institutional Animal Care and Use Committee. Two sets of experiments were completed: treatment of MDA-MB-231-GFP-luc cells prior to implantation and treatment of mice post-tumor implantation. For pre-treatment of tumor cells, MDA-MB-231-GFP-luc cells (5×10^6) were treated with or without Targapremir-210 (200 nM) or anti-miR-210 antagomir (500 nM) for 48 h pre-implantation. […]
(§8) Tumor growth was monitored weekly post-implantation by i.p. injection of 200 μL D-luciferin (15 mg/mL) and imaging with an IVIS 200 system. […] Levels of mature miR-210, HIF-1a, and GPLDL1 RNAs were measured by RT-qPCR as described above.

HIF-1α mRNA [11] = test: RT-qPCR of resected tumors, HIF-1α; assay type: in vivo, NOD/SCID mice; settings: compared to untreated tumors
Experimental: as §2, §7, §8

MDA-MB-231 cells = test: Apoptosis by Annexin V/propidium iodide staining and flow cytometry; assay type: cell-based; settings: 200 nM
Experimental: as §1

GPD1L = test: RT-qPCR of GPD1L in hypoxic MDA-MB-231 cells; assay type: cell-based; settings: 200 nM
Experimental: as §1, §2

[12] = tested on: MDA-MB-231-GFP-Luc tumors; test: TNBC mouse xenograft model, tumor burden; assay type: in vivo, NOD/SCID mice; settings: 200 nM, cell pre-treatment or single injection 24 h post-implantation; 21 days
Experimental: NOD/SCID mice (B6.CB17-Prkdcscid/Sz, Jackson Laboratories) were housed in the Scripps Florida vivarium. All live animal experiments were approved by the Scripps Florida Institutional Animal Care and Use Committee. Two sets of experiments were completed: treatment of MDA-MB-231-GFP-luc cells prior to implantation and treatment of mice post-tumor implantation. For pre-treatment of tumor cells, MDA-MB-231-GFP-luc cells (5×10^6) were treated with or without Targapremir-210 (200 nM) or anti-miR-210 antagomir (500 nM) for 48 h pre-implantation. A 100 μL PBS/Matrigel (1:1; BD Biosciences) cell suspension was subcutaneously transplanted into mouse breast fat pads. Alternatively, mouse breast fat pads were injected with a 100 μL PBS/Matrigel (1:1) cell suspension (5×10^6MDA-MB-231-GFP-luc cells) followed by intraperitoneal (i.p) injection of Targapremir-210 (100 μL of 200 nM) or anti-miR-210 antagomir (100 μL of 500 nM) 24 h post-transplantation.
Tumor growth was monitored weekly post-implantation by i.p. injection of 200 μL D-luciferin (15 mg/mL) and imaging with an IVIS 200 system. Tumors were resected 21 days post-transplantation following euthanasia. Levels of mature miR-210, HIF-1a, and GPLDL1 RNAs were measured by RT-qPCR as described above.

Topoisomerase II = target: T1, Topoisomerase II (Homo sapiens, UniProt P11388); test: In vitro topoisomerase inhibition assay; assay type: biochemical; settings: 200 nM
T1 construct: purchased TopoGEN, Inc
T1 sequence (P11388 whole entry): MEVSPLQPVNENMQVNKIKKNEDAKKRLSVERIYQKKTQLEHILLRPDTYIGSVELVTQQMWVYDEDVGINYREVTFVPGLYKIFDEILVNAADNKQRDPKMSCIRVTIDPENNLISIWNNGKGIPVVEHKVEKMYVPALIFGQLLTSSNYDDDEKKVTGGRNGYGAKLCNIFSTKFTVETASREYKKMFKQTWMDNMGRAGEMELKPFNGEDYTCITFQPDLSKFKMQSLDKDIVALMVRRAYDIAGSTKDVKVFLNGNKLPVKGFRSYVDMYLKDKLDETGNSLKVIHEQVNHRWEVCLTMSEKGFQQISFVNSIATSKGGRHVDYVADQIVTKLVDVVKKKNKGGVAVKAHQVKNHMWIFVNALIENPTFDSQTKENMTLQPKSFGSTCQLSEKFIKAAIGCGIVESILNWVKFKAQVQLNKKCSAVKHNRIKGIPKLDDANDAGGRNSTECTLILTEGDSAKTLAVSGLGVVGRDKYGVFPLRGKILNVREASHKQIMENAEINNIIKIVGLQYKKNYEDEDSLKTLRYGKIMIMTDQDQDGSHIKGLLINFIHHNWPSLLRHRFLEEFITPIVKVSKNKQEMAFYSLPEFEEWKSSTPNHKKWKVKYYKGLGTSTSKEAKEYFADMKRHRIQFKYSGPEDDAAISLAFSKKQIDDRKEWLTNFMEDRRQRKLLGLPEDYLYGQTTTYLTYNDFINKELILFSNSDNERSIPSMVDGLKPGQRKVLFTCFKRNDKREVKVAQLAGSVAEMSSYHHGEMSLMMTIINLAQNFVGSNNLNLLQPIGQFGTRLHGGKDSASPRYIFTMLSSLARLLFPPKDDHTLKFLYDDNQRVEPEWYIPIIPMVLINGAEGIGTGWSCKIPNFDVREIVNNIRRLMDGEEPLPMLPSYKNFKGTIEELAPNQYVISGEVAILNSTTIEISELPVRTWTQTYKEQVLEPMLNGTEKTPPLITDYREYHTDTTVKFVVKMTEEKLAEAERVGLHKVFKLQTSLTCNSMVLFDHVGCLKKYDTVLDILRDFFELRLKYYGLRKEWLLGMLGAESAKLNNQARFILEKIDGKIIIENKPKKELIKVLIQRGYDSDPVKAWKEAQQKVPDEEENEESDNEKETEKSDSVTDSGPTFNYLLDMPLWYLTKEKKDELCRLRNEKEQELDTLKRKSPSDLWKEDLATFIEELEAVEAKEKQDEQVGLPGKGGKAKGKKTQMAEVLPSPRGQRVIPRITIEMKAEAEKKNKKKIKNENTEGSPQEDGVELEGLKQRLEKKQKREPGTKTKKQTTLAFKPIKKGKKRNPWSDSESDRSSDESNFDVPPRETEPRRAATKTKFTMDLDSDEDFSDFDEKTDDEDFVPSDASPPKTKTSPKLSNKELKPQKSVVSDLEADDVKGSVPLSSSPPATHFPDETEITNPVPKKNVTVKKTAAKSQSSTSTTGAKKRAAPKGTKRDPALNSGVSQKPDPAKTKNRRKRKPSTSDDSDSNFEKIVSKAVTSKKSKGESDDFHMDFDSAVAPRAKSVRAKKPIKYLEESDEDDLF
Experimental: Topoisomerase II inhibitory activity was measured using a Topoisomerase II Drug Screening Kit (TopoGEN, Inc.) per the manufacturer's protocol. Taragpremir-210 (200 nM) was added to 300 ng of DNA in 1× Complete Buffer (50 mM Tris-HCl, pH 8, 150 mM NaCl, 10 mM MgCl2, 0.5 mM dithiothreitol, 30 μg/mL BSA, and 2 mM ATP), followed by addition of 7.5 U of Topoisomerase II enzyme. The samples were incubated for 30 min at 37° C., and the reaction was stopped by the addition of 2 µL of 10% sodium dodecyl sulfate (SDS). Proteinase K (50 μg/mL) was then added and the solution was incubated for 15 min at 37° C. Topoisomers were separated on 1% agarose gels with or without 0.5 μg/mL ethidium bromide. Note, for gels containing ethidium bromide, the 1× TAE running buffer was also supplemented with 0.5 μg/mL ethidium bromide. Gels prepared without ethidium bromide were post-stained (0.5 μg/mL ethidium bromide). Both types of gels were destained in 1× TAE for 15 min, and the DNA products were visualized using a Bio-Rad Gel Doc XR+imaging system.

HIF-1α mRNA [13] = test: RT-qPCR of HIF-1α mRNA in hypoxic MDA-MB-231 cells; assay type: cell-based; settings: 200 nM
Experimental: as §1, §2

miR-210 [14] = test: RT-qPCR of resected tumors, miR-210; assay type: in vivo, NOD/SCID mice; settings: compared to untreated tumors
Experimental: as §2, §7, §8

[15] = tested on: miR-210 hairpin precursor; test: Cellular Chem-CLIP and C-Chem-CLIP, miR-210; assay type: cell-based; settings: read-out: concentration required to inhibit ˜50% of the reaction of Targapremir-210-CA-Biotin with the miR-210 hairpin precursor (C-Chem-CLIP); MDA-MB-231 cells, 200 nM probe
Experimental: as §3, §4, §5, §6

[16] = 200 nM, hypoxic MDA-MB-231 cells

CCOc1ccc(-c2nc3ccc(-c4nc5ccc(N6CCN(C)CC6)cc5[nH]4)cc3[nH]2)cc1 [Hoechst 33342, reference compound]
mature miR-210 levels (miR-210 [1]; [16]): no statistically significant effect
affinity for pre-miR-210 (pre-miR-210 RNA; up to 5000 nM pre-miR-210 added): No saturable binding was observed

CN1CCN(c2ccc3nc(-c4ccc5[nH]c(-c6cccc(OCCCC(=O)NCCCN=[N+]=[N-])c6)nc5c4)[nH]c3c2)CC1 [Targapremir-210]
compound localization in tumor [2]: able to reach the tumor and sustain for the entire 21-day period
binding to RNA in which the Dicer site was ablated [3]: did not bind
inhibition of Dicer processing of pre-miR-210 in vitro [4]: inhibited pre-miR-210 processing at nanomolar concentrations
miRNAs with RNA isoform bound in cells (Chem-CLIP) [5]: only four of the miRNAs are bound
highest relative fold pull-down among hypoxia-associated miRNAs other than miR-210 ([6]; Chem-CLIP probe pull-down, three of 28 enriched (miR-181a, miR-205, miR-206)): ~2.8 fold
abundance of other hypoxia-associated miRNAs as a function of Targapremir-210 concentration (C-Chem-CLIP) ([6]; MDA-MB-231 cells): did not change
increase in pre-miR-210 levels (miR-210 [1]; [16]): ~2.6 fold
increase in pri-miR-210 levels (miR-210 [1]; [16]): ~3 fold
IC50 (miR-210 [1]; Homo sapiens, MDA-MB-231 cells, hypoxic conditions, RT-qPCR, read-out: IC50, decrease of mature miR-210 levels): ~200 nM
binding to in vitro transcribed pre-miR-210 (pre-miR-210 RNA; compared with binding to the Dicer site motif): binds similarly
Kd [7]: ~200 nM
effect on expression levels of miRNAs with predicted compound binding sites [8]: only affected levels of miR-210; also recorded: no statistically significant effect
effect on miR-96 and miR-210 levels [9]: only affects miR-210
effect on levels of hypoxia-associated miRNAs [10]: affected only levels of mature miR-210
GPD1L levels in resected tumors (GPD1L mRNA): doubled
reduction of HIF-1α levels in resected tumors (HIF-1α mRNA [11]): ~75%
apoptosis (MDA-MB-231 cells; hypoxic conditions): induced apoptosis
apoptosis with overexpression of pre-miR-210 (MDA-MB-231 cells; hypoxic conditions, pre-miR-210 overexpressed): allowed cells to escape apoptosis
apoptosis (MDA-MB-231 cells; normoxia): did not induce apoptosis
increase of GPD1L levels (GPD1L): ~4 fold
tumor growth (luciferase signal intensity, mass of the resected tumor) [12]: significantly decreased tumor growth
inhibition of topoisomerase enzymatic activity (Topoisomerase II): did not inhibit topoisomerase activity
reduction of HIF-1α mRNA levels (HIF-1α mRNA [13]): ~75%
reduction of miR-210 levels in resected tumors (miR-210 [14]): ~90%
IC50 [15]: 200 nM

Targaprimir-96 [reference compound]
effect on miR-96 and miR-210 levels [9]: only affects miR-96

— patent publication US20230041228A1, “Small Molecule Inhibition of Micro-RNA-210 Reprograms an Oncogenic Hypoxic Circuit” (University of Florida Research Foundation, Incorporated, priority 2017, published 2023)
